Reference: US10988523B2, “Modified lipidated Relaxin B chain peptides and their therapeutic use” (Sanofi, priority 2018, dated 2021)
Values after ≈ are worked out from the molar mass of the structure shown. Where two headings read alike, the source gives them in different places. *1 amine or outer side, *2 acyl side, *3 side chain or, on linkers, in order; H or OH if unused. Where a SMILES comes first, the peptide text is derived from it. Side-chain parts run from the residue outwards. [ ]: non-standard residue; d: D form. The star is where a group is joined. X7 = CCCCCCCCCCCCCCCCCC(=O)N[C@@H](CCC(=O)N[C@@H](CCC(=O)N[C@@H](CCC(=O)NCCCOCCOCCOCCCNC(=O)COCC(=O)NCCCOCCOCCOCCCNC(=O)COCC(=O)*)C(=O)O)C(=O)O)C(=O)O; γGlu = O=C(O)[C@H](CCC(=O)[*:2])N[*:1]; Stearoyl = CCCCCCCCCCCCCCCCCC(=O)*; Palmitoyl = CCCCCCCCCCCCCCCC(=O)*; Nle = CCCC[C@H](N)C(=O)O; AEEA = NCCOCCOCC(=O)O; Aib = CC(C)(N)C(=O)O

Assays:
RXFP1 = target: T1, RXFP1 (Homo sapiens, UniProt Q9HBX9); assay: OVCAR5 cAMP assay (HTRF), RXFP1 agonist activity; type: cell-based; details: for Emax: OVCAR-5, maximal cAMP relative to H2-relaxin maximum (100%), read-out: EMax, OVCAR 5 cells (cAMP)
T1 construct: OVCAR5 cells expressing endogenous RXFP1; endogenous in cells; host or cells: OVCAR5 cells
T1 sequence (Q9HBX9 1-757): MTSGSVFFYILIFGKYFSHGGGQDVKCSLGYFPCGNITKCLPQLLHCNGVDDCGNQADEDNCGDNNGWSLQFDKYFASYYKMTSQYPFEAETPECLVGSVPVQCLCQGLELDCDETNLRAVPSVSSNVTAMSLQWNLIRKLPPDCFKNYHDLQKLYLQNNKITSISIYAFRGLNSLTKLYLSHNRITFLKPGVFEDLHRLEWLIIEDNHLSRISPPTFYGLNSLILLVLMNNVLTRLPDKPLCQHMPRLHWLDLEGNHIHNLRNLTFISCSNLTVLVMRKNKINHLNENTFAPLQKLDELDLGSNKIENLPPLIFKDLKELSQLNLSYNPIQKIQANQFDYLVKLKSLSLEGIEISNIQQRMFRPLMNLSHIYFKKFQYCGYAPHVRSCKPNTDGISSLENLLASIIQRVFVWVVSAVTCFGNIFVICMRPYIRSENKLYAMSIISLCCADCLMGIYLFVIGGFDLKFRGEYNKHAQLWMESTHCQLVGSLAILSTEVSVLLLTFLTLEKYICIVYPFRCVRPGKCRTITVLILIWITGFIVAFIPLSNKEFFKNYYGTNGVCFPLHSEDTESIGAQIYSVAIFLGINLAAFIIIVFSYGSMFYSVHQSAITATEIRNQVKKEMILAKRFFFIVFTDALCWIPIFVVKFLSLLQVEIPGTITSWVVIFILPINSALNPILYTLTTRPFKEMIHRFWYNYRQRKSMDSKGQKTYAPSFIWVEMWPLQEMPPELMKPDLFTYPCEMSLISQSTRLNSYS
In short: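 cAMP accumulation readout: after 1 mM IBMX for 40 min, endogenous-RXFP1 OVCAR5 cells got rising peptide concentrations without FCS, 30 min, 37° C, then lysis with HTRF cAMP reagents. Nonlinear regression gave EC50; Emax expressed relative to H2-relaxin maximum, same occasion.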

[1] = Solubility testing of peptides in buffer; type: physicochemical
Procedure: Prior to the testing of solubility of a peptide batch, its purity (HPLC-UV) was determined.
Acetate Buffer 50 mM pH4.5: 0.75 g […], 3H2O (Sigma 57545)+0.35 ml CH3CO2H 100% solution dissolved in Millipore water, adjusted to pH with diluted (1:1) CH3CO2H and diluted to 250 ml with Millipore water.
In a 4 ml Ependorph vial, an accurately weighed sample of compound was diluted in study media to obtain target concentration of 2, 6 or 10 mg/ml of pure compound. The sample vials were shacked (rock 'roll shaker) for ˜19 h. 3004, Aliquots ( ) were filtered through a Millipore “Solvinert” plate (0.45 μm—PTFE hydrophilic).
pH was measured with a micro electrode
Waters Acquity UPLC System with DAD detector
Column: Waters Peptide Column CSH C18 (130 Å; 1.7 μm; 50*2.1 mm)
Column temperature: 60° C.
Full loop (about 5 μL)—overfill factor 5
Weak et Strong wash: H2O/ACN (75/25; V/V); Seal wash: H2O/IsOH (95/5; V/V). Mobile phase:
Solvent A: 0.05% TFA in H2O; Solvent B: 0.035% TFA in CH3CN
Gradient: from 0 to 12 min B=2% to 60%, from 12 to 14 min B=60% to 100%. Column washing 100% B 1 min, column equilibration 2% B 2.5 min.
UV detector: wavelength: 220 nm.

[2] = Stability testing of peptides in human plasma or blood; type: in vitro ADME; details: 37° C.; for Human Plasma stability % remaining T = 0: human plasma or blood, T = 0 (reference), 5 μM
Procedure: (§1) Prior to the testing of stability in plasma (or blood) of a peptide batch, its purity (HPLC-UV) was determined.
(§2) Rat and Human plasma: anti-coagulant sodium or lithium heparin.
(§3) Rat and Human blood: anti-coagulant sodium or lithium heparin. • Stock solution: • 100 μM solution of study compound in 50 mM Phosphate buffer pH 7.4. • 950 μL plasma (or blood) was pre-incubated for 5 min at 37° C. 50 μL of compound stock solution was added. Final compound concentration=5 μM. Vortex and transfer 1504, plasma (or blood) into an Eppendorf for each time point. The time points […] were carried out in duplicate for each species.
(§4) After incubation 150 μL, plasma (or blood) was extracted with 600 μL, Acetonitrile containing with 1% TFA. Then, vortexed and centrifuged 10 min at 14600 rpm. 200 μL supernatant was dried under N2. The sample was reconstituted in 200 μL of H2O/CH3CN 98/2+0.1% FA+50 ng/ml Labetalol and analyzed using the analytical system used in solubility and stability studies.
(§5) For determination of the amount of the remaining peptide, the peak areas of the target compound at t0 and each time point […] were compared, resulting in “% remaining peptide”, following the equation: % remaining peptide=[(peak area peptide time)×100]/peak area peptide t0. The stability is expressed as “% remaining peptide”.

[3] = Stability testing of peptides in rat plasma or blood; type: in vitro ADME; details: 37° C.; for Rat plasma stability % remaining T = 0: rat plasma or blood, T = 0 (reference), 5 μM; for remaining at 1 h, 5 µM / remaining at 4 h, 5 µM: whole blood, rat blood; for remaining at 1 h, 5 µM: read-out: Rat stability in blood % remaining 1 h; for remaining at 4 h, 5 µM: read-out: Rat stability in blood % remaining 4 h
Procedure: as §1, §2, §3, §4, §5

[4] = Pharmacokinetic (PK) determination after i.v. or s.c. administration to rats; type: in vivo, Sprague Dawley rats; details: Sprague Dawley, Rat PK; for C0 / half-life: iv, 1 mg/kg i.v.; for C0: extrapolated plasma concentration at t=0, read-out: C0; for half-life / Cmax / Tmax / bioavailability: plasma; for half-life: read-out: T½ (converted); for Cmax / Tmax: sc, 3 mg/kg s.c.; for bioavailability: subcutaneous, 3 mg/kg s.c. vs 1 mg/kg i.v., dose-corrected AUC ratio
In short: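 Non-compartmental analysis of plasma LC/MS data (protein precipitation, BLQ taken as zero) gave T½, C0 (i.v.), Cmax/Tmax (s.c.) and F% from dose-corrected AUCs. Dosing: 3 mg/kg s.c. or 1 mg/kg i.v. in PBS to Sprague Dawley rats, purity- and salt-corrected.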

[5] = acetate buffer, pH 4.5, read-out: Solubility Acetate buffer pH 4.5
[6] = phosphate buffer, pH 7.4, read-out: Solubility phosphate buffer pH 7.4

Structure (SMILES) | Emax (RXFP1) | solubility [1, 5] | solubility [1, 6] | EC50 (RXFP1; OVCAR5 cells, cAMP HTRF, read-out: EC50 (nM), OVCAR 5 cells (cAMP)) | Human Plasma stability % remaining T = 0 [2] | remaining at 1 h, 5 µM ([2]; whole blood, human blood, 1 h, read-out: Human stability in blood % remaining 1 h) | remaining at 4 h, 5 µM ([2]; whole blood, human blood, 4 h, read-out: Human stability in blood % remaining 4 h) | Rat plasma stability % remaining T = 0 [3] | remaining at 1 h, 5 µM [3] | remaining at 4 h, 5 µM [3] | C0 [4] | half-life [4] | Cmax [4] | Tmax [4] | bioavailability [4]
CCCCCCCCCCCCCCCCCC(=O)N[C@@H](CCC(=O)N[C@@H](CCC(=O)N[C@@H](CCC(=O)NCCCOCCOCCOCCCNC(=O)COCC(=O)NCCCOCCOCCOCCCNC(=O)COCC(=O)NCCCC[C@H](NC(=O)[C@H](CCCCNC(C)=O)NC(=O)[C@H](CCCCN)NC(=O)[C@H](CCCNC(=N)N)NC(=O)C(C)(C)NC(=O)[C@H](CO)NC(=O)[C@H](Cc1c[nH]c2ccccc12)NC(=O)[C@@H](NC(=O)[C@H](CO)NC(=O)[C@H](CCCC)NC(=O)CNC(=O)[C@H](CCC(=O)O)NC(=O)C(C)(C)NC(=O)C(C)(C)NC(=O)[C@@H](NC(=O)[C@H](CCCCNC(C)=O)NC(=O)[C@H](C)NC(=O)[C@H](CCCNC(=N)N)NC(=O)[C@@H](NC(=O)[C@H](CCCCN)NC(=O)[C@H](CCC(=O)O)NC(=O)[C@H](CCCNC(=N)N)NC(=O)CNC(=O)[C@H](CCC(=O)O)NC(=O)[C@H](CC(C)C)NC(C)=O)C(C)C)[C@@H](C)CC)[C@@H](C)O)C(N)=O)C(=O)O)C(=O)O)C(=O)O [compound 95] (Ac-LEGREKVRAK(Ac)I[Aib][Aib]EG[Nle]STWS[Aib]RKK(Ac)K(X7)-NH2) | 87% | 5600 µg/mL (≈ 1310 µM) | 5600 µg/mL (≈ 1310 µM) | – | – | – | – | – | – | – | – | – | – | – | –
CCCCCCCCCCCCCCCC(=O)N[C@@H](CCC(=O)NCCCC[C@H](NC(=O)CC[C@H](NC(=O)CC[C@H](NC(=O)COCCOCCNC(=O)COCCOCCNC(=O)COCCOCCNC(=O)[C@H](CCCCN)NC(=O)[C@H](CCCCN)NC(=O)[C@H](CCCCN)NC(=O)[C@H](CCCNC(=N)N)NC(=O)C(C)(C)NC(=O)[C@H](CO)NC(=O)[C@H](Cc1c[nH]c2ccccc12)NC(=O)[C@@H](NC(=O)[C@H](CO)NC(=O)[C@H](CCCC)NC(=O)CNC(=O)[C@H](CCC(=O)O)NC(=O)C(C)(C)NC(=O)C(C)(C)NC(=O)[C@@H](NC(=O)[C@H](CCC(N)=O)NC(=O)[C@H](C)NC(=O)[C@H](CCCNC(=N)N)NC(=O)[C@@H](NC(=O)[C@H](CCCCN)NC(=O)[C@H](CCC(=O)O)NC(=O)[C@H](CCCNC(=N)N)NC(=O)CNC(=O)[C@H](CCC(=O)O)NC(=O)[C@H](CC(C)C)NC(C)=O)C(C)C)[C@@H](C)CC)[C@@H](C)O)C(=O)O)C(=O)O)C(N)=O)C(=O)O [compound 109] (Ac-LEGREKVRAQI[Aib][Aib]EG[Nle]STWS[Aib]RKKK[AEEA][AEEA][AEEA][γGlu][γGlu]K([γGlu-Palmitoyl])-NH2) | 98% | 5900 µg/mL (≈ 1440 µM) | 5900 µg/mL (≈ 1440 µM) | 0.15 nM | – | – | – | – | – | – | – | – | – | – | –
CCCCCCCCCCCCCCCC(=O)N[C@@H](CCC(=O)N[C@@H](CCC(=O)N[C@@H](CCC(=O)NCCOCCOCC(=O)NCCOCCOCC(=O)NCCOCCOCC(=O)NCCCC[C@H](NC(=O)[C@H](CCCCNC(C)=O)NC(=O)[C@H](CCCCN)NC(=O)[C@H](CCCNC(=N)N)NC(=O)C(C)(C)NC(=O)[C@H](CO)NC(=O)[C@H](Cc1c[nH]c2ccccc12)NC(=O)[C@@H](NC(=O)[C@H](CO)NC(=O)[C@H](CCCC)NC(=O)CNC(=O)[C@H](CCC(=O)O)NC(=O)C(C)(C)NC(=O)C(C)(C)NC(=O)[C@@H](NC(=O)[C@H](CCCCNC(C)=O)NC(=O)[C@H](C)NC(=O)[C@H](CCCNC(=N)N)NC(=O)[C@@H](NC(=O)[C@H](CCCCN)NC(=O)[C@H](CCC(=O)O)NC(=O)[C@H](CCCNC(=N)N)NC(=O)CNC(=O)[C@H](CCC(=O)O)NC(=O)[C@H](CC(C)C)NC(C)=O)C(C)C)[C@@H](C)CC)[C@@H](C)O)C(N)=O)C(=O)O)C(=O)O)C(=O)O [compound 63] (Ac-LEGREKVRAK(Ac)I[Aib][Aib]EG[Nle]STWS[Aib]RKK(Ac)K([AEEA-AEEA-AEEA-γGlu-γGlu-γGlu-Palmitoyl])-NH2) | 80% | – | – | – | 100% | 93% | 87% | 100% | 95% | 79% | 6.02 µM | 5.72 h | 2.4 µM | 10 h | 47%
CCCCCCCCCCCCCCCCCC(=O)N[C@@H](CCC(=O)N[C@@H](CCC(=O)N[C@@H](CCC(=O)NCCCC[C@H](NC(=O)[C@H](CCCCN)NC(=O)[C@H](CCCNC(=N)N)NC(=O)C(C)(C)NC(=O)[C@H](CO)NC(=O)[C@H](Cc1c[nH]c2ccccc12)NC(=O)[C@@H](NC(=O)[C@H](CO)NC(=O)[C@H](CCCC)NC(=O)CNC(=O)[C@H](CCC(=O)O)NC(=O)C(C)(C)NC(=O)C(C)(C)NC(=O)[C@@H](NC(=O)[C@H](CCC(N)=O)NC(=O)[C@H](C)NC(=O)[C@H](CCCNC(=N)N)NC(=O)[C@@H](NC(=O)[C@H](CCCCN)NC(=O)[C@H](CCC(=O)O)NC(=O)[C@H](CCCNC(=N)N)NC(=O)CNC(=O)[C@H](CCC(=O)O)NC(=O)[C@H](CC(C)C)NC(C)=O)C(C)C)[C@@H](C)CC)[C@@H](C)O)C(N)=O)C(=O)O)C(=O)O)C(=O)O [compound 9] (Ac-LEGREKVRAQI[Aib][Aib]EG[Nle]STWS[Aib]RKK([γGlu-γGlu-γGlu-Stearoyl])-NH2) | 95% | – | – | – | 100% | – | – | 100% | 84% | 92% | 4.99 µM | 3 h | 2.32 µM | 6 h | 42%
